Here are results for 18 molecules from patent US12473304B2, “Heterocyclic PAD4 inhibitors” (BRISTOL-MYERS SQUIBB COMPANY, priority 2020, dated 2025).

Chain of human PAD4 (hPAD4) (Q9UM07 whole entry): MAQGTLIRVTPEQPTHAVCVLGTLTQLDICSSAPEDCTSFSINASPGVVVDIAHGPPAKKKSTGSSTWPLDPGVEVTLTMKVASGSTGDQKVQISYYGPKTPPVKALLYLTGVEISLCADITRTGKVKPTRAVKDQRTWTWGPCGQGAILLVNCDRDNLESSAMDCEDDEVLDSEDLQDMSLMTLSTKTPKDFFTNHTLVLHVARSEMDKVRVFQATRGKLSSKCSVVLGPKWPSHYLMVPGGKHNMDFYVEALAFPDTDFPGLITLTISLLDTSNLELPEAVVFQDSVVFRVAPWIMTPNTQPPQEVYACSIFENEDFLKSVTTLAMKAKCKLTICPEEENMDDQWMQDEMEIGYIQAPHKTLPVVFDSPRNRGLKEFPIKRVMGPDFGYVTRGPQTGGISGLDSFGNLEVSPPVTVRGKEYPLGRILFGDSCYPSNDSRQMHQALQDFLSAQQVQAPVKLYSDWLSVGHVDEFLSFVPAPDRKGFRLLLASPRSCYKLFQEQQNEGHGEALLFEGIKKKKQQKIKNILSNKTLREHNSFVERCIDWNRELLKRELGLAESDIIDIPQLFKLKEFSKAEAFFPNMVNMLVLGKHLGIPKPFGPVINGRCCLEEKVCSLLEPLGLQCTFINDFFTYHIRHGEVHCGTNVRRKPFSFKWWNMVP

This test addresses human PAD4 (hPAD4) (Homo sapiens (Human), UniProt Q9UM07). The test can be described thus: RFMS Human PAD4 Functional Assay 1. Type of test: biochemical. As to conditions: RFMS assay 1; 5 nM hPAD4, 250 μM BAEE substrate, 50 μM calcium, 37° C. A digest of the protocol: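 Recombinant hPAD4 (5 nM) was preincubated with compound (top 50 μM, 0.5% DMSO) for 30 min at 37 °C, then reacted with 250 μM BAEE for 90 min at 37 °C in pH 7.5 HEPES buffer with 50 μM calcium and 5 μM TPEN. Product was derivatized with phenyl glyoxal and quantified by RapidFire MS.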
For the molecule `Cc1c(-c2cc3ccc(C(C)(C)O)nc3n2CC2CC2)nn2cc(C(=O)N3C[C@H](N)C[C@@H](F)C3)ccc12` [Example 105, ((3R,5R)-3-Amino-5-fluoropiperidin-1-yl)(2-(1-(cyclopropylmethyl)-6-(2-hydroxypropan-2-yl)-1H-pyrrolo[2,3-b]pyridin-2-yl)-3-methylpyrazolo[1,5-a]pyridin-6-yl)methanone], the IC50 came out at 107 nM. Then `Cc1c(-c2cc3ccc(Cl)nc3n2CC2CC2)nn2cc(C(=O)N3CC4CCC3[C@@H]4N)cnc12` (stereo partly drawn) [Example 108, ((7R)-7-Amino-2-azabicyclo[2.2.1]heptan-2-yl)(2-(6-chloro-1-(cyclopropylmethyl)-1H-pyrrolo[2,3-b]pyridin-2-yl)-3-methylpyrazolo[1,5-a]pyrimidin-6-yl)methanone], with 907 nM; and `Cc1c(-c2cc3ccc(-c4cccc(O)c4F)nc3n2CC2CC2)nn2cc(C(=O)N3CC4CCC3[C@@H]4N)cnc12` (stereo partly drawn) [Example 109, ((7R)-7-Amino-2-azabicyclo[2.2.1]heptan-2-yl)(2-(1-(cyclopropylmethyl)-6-(2-fluoro-3-hydroxyphenyl)-1H-pyrrolo[2,3-b]pyridin-2-yl)-3-methylpyrazolo[1,5-a]pyrimidin-6-yl)methanone], with 292 nM; and `Cc1c(-c2cc3ccc(-c4ccc5c(c4)C(=O)NC5)nc3n2CC2CC2)nn2cc(C(=O)N3CC4CCC3[C@@H]4N)cnc12` (stereo partly drawn) [Example 110, 6-(2-(6-((7R)-7-Amino-2-azabicyclo[2.2.1]heptane-2-carbonyl)-3-methylpyrazolo[1,5-a]pyrimidin-2-yl)-1-(cyclopropylmethyl)-1H-pyrrolo[2,3-b]pyridin-6-yl)isoindolin-1-one], with 1040 nM. In the case of `Cc1c(-c2cc3ccc(-c4ccc(O)c(F)c4)nc3n2CC2CC2)nn2cc(C(=O)N3CC4CCC3[C@@H]4N)cnc12` (stereo partly drawn) [Example 111, ((7R)-7-Amino-2-azabicyclo[2.2.1]heptan-2-yl)(2-(1-(cyclopropylmethyl)-6-(3-fluoro-4-hydroxyphenyl)-1H-pyrrolo[2,3-b]pyridin-2-yl)-3-methylpyrazolo[1,5-a]pyrimidin-6-yl)methanone] it was 15000 nM; in that of `Cc1c(-c2cc3ccc(-c4ccc(C(N)=O)c(F)c4)nc3n2CC2CC2)nn2cc(C(=O)N3CC4CCC3[C@@H]4N)cnc12` (stereo partly drawn) [Example 112, 4-(2-(6-((7R)-7-Amino-2-azabicyclo[2.2.1]heptane-2-carbonyl)-3-methylpyrazolo[1,5-a]pyrimidin-2-yl)-1-(cyclopropylmethyl)-1H-pyrrolo[2,3-b]pyridin-6-yl)-2-fluorobenzamide], 572 nM.

Regarding `COc1nc(C(=O)N2CC3CCC2[C@@H]3N)cn2nc(-c3cc4ccccc4n3CC3CC3)c(C)c12` (stereo partly drawn) [Example 113, ((7R)-7-Amino-2-azabicyclo[2.2.1]heptan-2-yl)(2-(1-(cyclopropylmethyl)-1H-indol-2-yl)-4-methoxy-3-methylpyrazolo[1,5-a]pyrazin-6-yl)methanone], the IC50 was determined as 283 nM.

In the case of `COc1nc(C(=O)N2C[C@H](N)C[C@@H](F)C2)cn2nc(-c3cc4ccccc4n3CC3CC3)c(C)c12` [Example 114, ((3R,5R)-3-Amino-5-fluoropiperidin-1-yl)(2-(1-(cyclopropylmethyl)-1H-indol-2-yl)-4-methoxy-3-methylpyrazolo[1,5-a]pyrazin-6-yl)methanone], the IC50 was 3980 nM. In the case of `COc1nc(C(=O)N2CC3CCC2[C@@H]3N)cn2nc(-c3cc4cccnc4n3CC3CC3)c(C)c12` (stereo partly drawn) [Example 115, ((7R)-7-Amino-2-azabicyclo[2.2.1]heptan-2-yl)(2-(1-(cyclopropylmethyl)-1H-pyrrolo[2,3-b]pyridin-2-yl)-4-methoxy-3-methylpyrazolo[1,5-a]pyrazin-6-yl)methanone] it was 3370 nM. In the case of `COc1nc(C(=O)N2CC3(CNC3)C2)cn2nc(-c3cc4cccnc4n3CC3CC3)c(C)c12` [Example 116, (2-(1-(Cyclopropylmethyl)-1H-pyrrolo[2,3-b]pyridin-2-yl)-4-methoxy-3-methylpyrazolo[1,5-a]pyrazin-6-yl)(2,6-diazaspiro[3.3]heptan-2-yl)methanone] it was 22800 nM; in that of `COc1nc(C(=O)NC[C@H](F)CN)cn2nc(-c3cc4cccnc4n3CC3CC3)c(C)c12` [Example 117, (R)-N-(3-Amino-2-fluoropropyl)-2-(1-(cyclopropylmethyl)-1H-pyrrolo[2,3-b]pyridin-2-yl)-4-methoxy-3-methylpyrazolo[1,5-a]pyrazine-6-carboxamide], 15000 nM; in that of `COc1cc(C(=O)N2CC3CCC2[C@@H]3N)cc2sc(-c3cc4ccccc4n3CC3CC3)c(C)c12` (stereo partly drawn) [Example 118, ((7R)-7-Amino-2-azabicyclo[2.2.1]heptan-2-yl)(2-(1-(cyclopropylmethyl)-1H-indol-2-yl)-4-methoxy-3-methylbenzo[b]thiophen-6-yl)methanone], 157 nM.

For `COc1cc(C(=O)N2CC3CCC2[C@@H]3N)cc2sc(-c3cc4cccnc4n3CC3CC3)c(C)c12` (stereo partly drawn) [Example 119, ((7R)-7-Amino-2-azabicyclo[2.2.1]heptan-2-yl)(2-(1-(cyclopropylmethyl)-1H-pyrrolo[2,3-b]pyridin-2-yl)-4-methoxy-3-methylbenzo[b]thiophen-6-yl)methanone], the IC50 was 84 nM.

Consider `COc1cc(C(=O)N2CC3CCC2[C@@H]3N)cc2sc(-c3cc4ccc(-c5ccc6c(c5)C(=O)NC6)cc4n3CC3CC3)c(C)c12` (stereo partly drawn) [Example 120, 6-(2-(6-((7R)-7-Amino-2-azabicyclo[2.2.1]heptane-2-carbonyl)-4-methoxy-3-methylbenzo[b]thiophen-2-yl)-1-(cyclopropylmethyl)-1H-indol-6-yl)isoindolin-1-one], for which the IC50 turned out to be 250 nM. In the case of `COc1cc(C(=O)N2CC3CCC2[C@@H]3N)cc2sc(-c3cc4ccc(-c5cccc(O)c5F)cc4n3CC3CC3)c(C)c12` (stereo partly drawn) [Example 121, ((7R)-7-Amino-2-azabicyclo[2.2.1]heptan-2-yl)(2-(1-(cyclopropylmethyl)-6-(2-fluoro-3-hydroxyphenyl)-1H-indol-2-yl)-4-methoxy-3-methylbenzo[b]thiophen-6-yl)methanone] it was 1500 nM; in that of `COc1cc(C(=O)N2CC3CCC2[C@@H]3N)cc2sc(-c3cc4ccc(-c5ccn6c(C)nnc6c5)cc4n3CC3CC3)c(C)c12` (stereo partly drawn) [Example 122, ((7R)-7-Amino-2-azabicyclo[2.2.1]heptan-2-yl)(2-(1-(cyclopropylmethyl)-6-(3-methyl-[1,2,4]triazolo[4,3-a]pyridin-7-yl)-1H-indol-2-yl)-4-methoxy-3-methylbenzo[b]thiophen-6-yl)methanone], 68 nM; in that of `COc1cc(C(=O)N2CC3CCC2[C@@H]3N)cc2sc(-c3cc4ccc(-c5ccc(C(N)=O)c(Cl)c5)cc4n3CC3CC3)c(C)c12` (stereo partly drawn) [Example 125, 4-(2-(6-((7R)-7-Amino-2-azabicyclo[2.2.1]heptane-2-carbonyl)-4-methoxy-3-methylbenzo[b]thiophen-2-yl)-1-(cyclopropylmethyl)-1H-indol-6-yl)-2-chlorobenzamide], 413 nM. Take `COc1cc(C(=O)N2CC3CCC2[C@@H]3N)cc2sc(-c3cc4ccc(-c5ccc6c(c5)CNC6=O)cc4n3CC3CC3)c(C)c12` (stereo partly drawn) [Example 126, 5-(2-(6-((7R)-7-Amino-2-azabicyclo[2.2.1]heptane-2-carbonyl)-4-methoxy-3-methylbenzo[b]thiophen-2-yl)-1-(cyclopropylmethyl)-1H-indol-6-yl)isoindolin-1-one]: the IC50 was 122 nM.

As usually defined, the IC50 is the concentration that inhibits the measured activity by half.
